# Assay results as given in US20180161314A1, “Methods for Treating Hyperuricemia and Related Diseases” (Ardea Biosciences, Inc., priority 2010, published 2018).
# Like-named read-outs stand apart in the source and are kept apart here.
# What was measured:
# [1] = tested on: hyperuricemic subjects with symptomatic gout; experiment: Pilot study of drug 1 versus placebo and open-label allopurinol in hyperuricemic subjects with symptomatic gout (Examples 1, 2, 20); assay type: in vivo, human
# Method: Study Objectives • To compare the proportion of subjects whose sUA level is <6.0 mg/dL following 2 weeks of continuous treatment with drug 1 compared to allopurinol and placebo. • To evaluate the percent reduction from baseline in sUA levels following 2 weeks of continuous treatment with drug 1 in combination with allopurinol. • To evaluate the proportion of subjects whose sUA levels are <6.0 mg/dL, <5.0 mg/dL and <4.0 mg/dL at each visit. • To evaluate the absolute and percent reduction from baseline in sUA levels at each visit. • To evaluate the maximum percent reduction in sUA levels from baseline during the entire treatment period. • To evaluate percent change in 24-hour urine uric acid level from baseline to Day 15. • To evaluate the safety and tolerability of drug 1 in subjects with gout. • To evaluate the pharmacokinetics, safety and tolerability of drug 1 in combination with allopurinol in subjects with gout.
# A randomized, double-blind, placebo-controlled, dose titration, safety and pharmacodynamics pilot study, in approximately 26 hyperuricemic subjects with symptomatic gout enrolled at 2-3 investigational sites in N America, of: • drug 1 versus placebo and open-label allopurinol (Cohort 1); and • drug 1 in combination with allopurinol versus continued allopurinol alone (Cohort 2)
# Subjects are randomized 7 days prior to Day 1 in a double-blind fashion to receive drug 1, drug 1 matching placebo, or open-label allopurinol (Cohort 1) or drug 1 or drug 1 matching placebo in combination with allopurinol (Cohort 2).
# To reduce the incidence of gout flares, colchicine 0.6 mg qd is administered to all subjects starting 14 days prior to the Baseline (Day 1) visit. Subjects continue colchicine administration throughout the Treatment Period, discontinuing at the End of Study visit (one week after the last dose of study medication).
# Cohort 1 approx 20 subjects randomized in 2:1:1 ratio treatment groups—drug 1:placebo:allopurinol.
# Subjects randomized to double-blind treatment: • approx 10 subjects randomized to receive drug 1 200 mg qd (4 drug 1 50 mg capsules/day) for one week, followed by drug 1 400 mg qd (8 drug 1 50 mg capsules/day) for one week. • 5 subjects randomized to receive drug 1 matching placebo qd for 2 weeks (week 1-4 drug 1 matching placebo capsules; week 2-8 drug 1 matching placebo capsules)
# Subjects randomized to open-label treatment: • 5 subjects randomized to receive allopurinol 300 mg tablets qd for 2 weeks Cohort 2 approx 6 subjects randomized in 5:1 ratio treatment groups—drug+allopurinol:placebo+allopurinol
# For Cohorts 1 and 2, subjects randomized to double-blind treatment take drug 1 or drug 1 matching placebo every 24 hours (±1 h) (morning dose) for a period of 2 weeks. For Cohort 1, subjects randomized to open-label treatment take allopurinol every 24 hours (±1 h) (morning dose) for a period of 2 weeks.
# Subjects are requested to then drink approximately 240 mL of water 1-2 hours after dosing.
# 1. Male or post-menopausal or surgically sterile female. 2. 18-75 years of age. 3. Hyperuricemic, defined as: Cohort 1: Screening serum uric acid is ≥8 mg/dL Cohort 2: Screening serum uric acid is ≥10 mg/dL 4. Subject meets one or more of the 1977 American Rheumatism Association (ARA) criteria for the diagnosis of acute arthritis of primary gout. 5. Subject is willing and able to give informed consent and adhere to visit/protocol schedules.
# Blood samples (4.5 mL) are collected and sUA levels determined at Screening (repeated as necessary prior to Day 1), Baseline (Day 1) (1 hour and 8 hours post-dose), Day 8 (trough, 1 hour and 8 hours post-dose), Day 9 (24 hours after Day 8 dose), and Day 14 (trough and 8 hours post-dose), Day 15 and End of Study. An additional sUA level is obtained on Day 7 for Cohort 2 subjects prior to the first dose of allopurinol.
# Primary pharmacodynamics parameter is the proportion of subjects with serum uric acid <6.0 mg/dL following 2 weeks of treatment. […]
# [2] = tested on: gout patients with hyperuricemia; assay type: in vivo; settings: for Mean absolute sUA reduction / Mean sUA % change / Mean sUA level: ± SE; for % Response rate for sUA falling below 4 mg/dL / % Response rate for sUA falling below 5 mg/dL / % Response rate for sUA falling below 6 mg/dL: allopurinol 300 mg
# Method: Study Objectives • To measure the effect of drug 1, alone and in combination with allopurinol, on serum urate concentration. • To evaluate the safety and tolerability of drug 1 in combination with allopurinol.
# The study is open-label in gout patients with hyperuricemia, involving 2 panels of ˜10-12 patients per panel. The panels may be enrolled simultaneously.
# Panel 1 receives a once-daily dose of allopurinol 300 mg alone for 7 days and for an additional 7 days in combination with a once-daily dose of drug 1 400 mg. Patients then receive 7 days of a once-daily dose of drug 1 400 mg alone. Panel 2 follows the same regimen as panel 1, at doses of allopurinol 300 mg and drug 1 600 mg.
# • Day −10 to Day 28: colchicine prophylaxis; or • Day −7 to Day 28: colchicine prophylaxis (for patients not washing out from ULT) • Days 1-7: allopurinol 300 mg qd • Days 8-14: drug 1 400 mg qd+allopurinol 300 mg qd • Days 15-21: drug 1 400 mg qd
# • Day −10 to Day 28: colchicine prophylaxis; or • Day −7 to Day 28: colchicine prophylaxis (for patients not washing out from ULT) • Days 1-7: allopurinol 300 mg qd • Days 8-14: drug 1 600 mg qd+allopurinol 300 mg qd • Days 15-21: drug 1 600 mg qd
# Gout patients on a urate lowering therapy (ULT), have previously taken a ULT or who have never taken a ULT are eligible to participate. Screening procedures to determine patient eligibility are performed within approximately 14 days of the first dose of study drug (Day 1). Subjects currently on ULT wash-out for at least 10 days before Day 1, and begin colchicine (Colcry® 0.6 mg qd, URL Pharma) as prophylaxis for gout flares at the beginning of the wash-out period. Subjects not on ULT begin colchicine administration at least 7 days prior to Day 1. Patients intolerant of colchicine during the screening period are considered screen failures and not enrolled. Prophylactic administration of colchicine continues for 7 days after the last dose of study medication.
# Eligible patients report to the study center early morning on Days −1, 7, 14, and 21 (or the afternoon/evening the day before). Serial blood samples are collected on Days −1, 7, 14, and 21. Study medication is administered to each patient and taken orally every morning with approximately 240 mL of water, at approximately the same time of the morning every day, and approximately 30 minutes after finishing a full breakfast (approximately 650 Kcal and 35% fat); the breakfast is standardized on Days −1 to 21.
# Inclusion Criteria • Patient is male or post-menopausal or surgically sterile female. • Patient is 18-80 years of age. • Patient meets one or more criteria for the diagnosis of gout as per the American Rheumatism Association (ARA) Criteria for the Classification of Acute Arthritis of Primary Gout (Appendix B). • Patient sUA≥8 mg/dL at screening. • Patient willing and able to give informed consent and adhere to visit/protocol schedules • No clinically relevant abnormalities in blood pressure (BP), heart rate (HR), body temperature and respiratory rate as per Investigator's judgment.
# Subject urate serum levels are recorded, and any safety concerns assessed (by adverse events, clinical laboratory test results, vital signs, 12-lead ECGs, and physical examinations). […] Urate serum concentrations are evaluated for treatment- and/or time-dependent changes relative to baseline (Day −1), and may be expressed both in standard units (mg/dL) and as changes from baseline (e.g., percent change, absolute change, maximal change, and time or day of maximal change).
# Drug 1 was tested according to the protocol described in Example 21.
# Serum urate levels were measured and absolute and % reduction levels from baseline calculated, for Allopurinol monotherapy, Drug 1 monotherapy and Allopurinol plus Drug 1 combination.
# [3] = Drug 1 400 mg panel: allopurinol 300 mg qd days 1-7, combination days 8-14, drug 1 400 mg qd alone days 15-21
# [4] = Drug 1 600 mg panel: allopurinol 300 mg qd days 1-7, combination days 8-14, drug 1 600 mg qd alone days 15-21
compound,measurement,setting,value
"Oc1ncnc2[nH]ncc12 [Allopurinol, 1H-pyrazolo[3,4-d]pyrimidin-4(2H)-one, reference compound]",Responders Day 14 (those with sUA <6 mg/dL),"[1]; Cohort 1, Day 14, responders/subjects, drug 1 200 mg qd 1 week then 400 mg qd 1 week, allopurinol 300 mg qd 2 weeks",5/5
same,Adverse event,[1]; one subject on allopurinol 300 mg qd,hyperaldosteronemia
same,Mean absolute sUA reduction,[2]; [3],-3.1 ± 0.28 mg/dL
same,Mean sUA % change,[2]; [3],−32.2 ± 2.1%
same,Mean sUA level,[2]; [3],6.5 ± 0.16 mg/dL
same,% Response rate for sUA falling below 4 mg/dL,[2]; Drug 1 400 mg panel,0%
same,% Response rate for sUA falling below 5 mg/dL,[2]; Drug 1 400 mg panel,0%
same,% Response rate for sUA falling below 6 mg/dL,[2]; Drug 1 400 mg panel,10%
same,Mean absolute sUA reduction,[2]; [4],-2.6 ± 0.26 mg/dL
same,Mean sUA % change,[2]; [4],−28.7 ± 2.4%
same,Mean sUA level,[2]; [4],6.3 ± 0.31 mg/dL
same,% Response rate for sUA falling below 4 mg/dL,[2]; Drug 1 600 mg panel,0%
same,% Response rate for sUA falling below 5 mg/dL,[2]; Drug 1 600 mg panel,10%
same,% Response rate for sUA falling below 6 mg/dL,[2]; Drug 1 600 mg panel,30%
